Seven compounds from patent publication US20220041588A1, “SUBSTITUTED IMIDAZO[1,2-A]PYRIDINE AND [1,2,4]TRIAZOLO[1,5-A]PYRIDINE COMPOUNDS AS RET KINASE INHIBITORS” (FOCHON PHARMACEUTICALS, LTD., priority 2018, published 2022) can be followed below.

One test has as its system TT (RET C634W) cells. In words: Cell proliferation assay (MTS), TT cells. The conditions noted are these: Homo sapiens, TT, 72 h, 72 h incubation, MTS readout. The test is classed as cell-based. The essentials: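 TT cells (F12K, 10% FBS) and LC-2/ad cells (HamF12:RPMI1640 1:1, 10% FBS, 2 mM glutamine) were seeded at 5000/well for 24 h. They were then treated 72 h at 37 °C with nine final concentrations from 10000 to 1.5 nM. MTS was read after 2 h, SDS-stopped, at 490 nm (650 nm reference), and IC50 calculated.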

For test [1], the system named is LC-2/ad (CCDCl6-RET) cells. Kind of test: Cell proliferation assay (MTS), LC-2/ad cells. The class given is cell-based. The note with it: Homo sapiens, LC-2-ad, 72 h, LC-2/ad cells (CCDCl6-RET), 72 h incubation, MTS readout. On the procedure:
MTS testing kit was purchased from Promega. The RPMI-1640, F12, F12K, Fetal bovine serum and Penicillin-Streptomycin were purchased from BI. Glutamine and Dimethyl sulfoxide (DMSO) were purchased from Sigma. TT cells were cultured in F12K supplemented with 10% FBS and LC-2/ad cells were cultured in HamF12: RPMI1640 (1:1) supplemented with 10% FBS and 2 mM Glutamine.
To investigate whether a compound is able to inhibit the activity of RET fusion and/or mutation in cells, a mechanism-based assay using TT (RET C634W) and LC-2/ad (CCDCl6-RET) cell lines was developed. In this assay, the inhibition of RET fusion and/or mutation was reflected by the inhibition of cell proliferation of TT and LC-2/ad cells. Cells were plated into 96-well plates at the optimized cell density (TT: 5000 cells/well; LC-2/ad: 5000 cells/well). Plates were incubated at 37° C., with 5% CO2 for 24 h. Compounds were serially diluted and added to the plates with the final concentrations as 10000, 3333.3, 1111.1, […], 123.5, 41.2, 13.7, 4.6 and 1.5 nM. Plates were incubated at 37° C., with 5% CO2 for 72 h. An aliquot of 20 μL MTS/100 μL medium mixture solution were added to each well and the plates were incubated for exactly 2 h. The reaction was stopped by adding 25 μL 10% SDS to each well. The absorbance was measured by a microplate reader at 490 nm and 650 nm (reference wavelength). IC50 was calculated using GraphPad Prism 5.0.

Turning to `COc1ccc(CN2C3CC2CN(c2ccc(-c4cc(OCCC(O)C(F)(F)F)cc5ncc(C#N)n45)cn2)C3)cn1` (centres unmarked) [Example 59, 5-(6-(6-((6-Methoxypyridin-3-yl)methyl)-3,6-diazabicyclo[3.1.1]heptan-3-yl)pyridin-3-yl)-7-(4,4,4-trifluoro-3-hydroxybutoxy)imidazo[1,2-a]pyridine-3-carbonitrile], the values for the IC50 (in the test with TT (RET C634W) cells; in test [1]) were 126 nM and 64 nM, respectively.
For `COc1ccc(OC2CCN(c3ccc(-c4cc(OCC(C)(C)O)cc5ncc(C#N)n45)cn3)CC2)cn1` [Example 60, 7-(2-Hydroxy-2-methylpropoxy)-5-(6-(4-((6-methoxypyridin-3-yl)oxy)piperidin-1-yl)pyridin-3-yl)imidazo[1,2-a]pyridine-3-carbonitrile] the same measures were 3 nM and 9 nM.
For `CC(C)(O)COc1cc(-c2ccc(N3CCC(Oc4ccccn4)CC3)nc2)n2c(C#N)cnc2c1` [Example 64, 7-(2-hydroxy-2-methylpropoxy)-5-(6-(4-(pyridin-2-yloxy)piperidin-1-yl)pyridin-3-yl)imidazo[1,2-a]pyridine-3-carbonitrile] the same measures were 87 nM and 28 nM.
With `COc1ccc(OC2CCN(c3ccc(-c4cc(OCC(C)(C)O)cc5ncc(C#N)n45)cn3)CC2)nn1` [Example 65, 7-(2-hydroxy-2-methylpropoxy)-5-(6-(4-((6-methoxypyridazin-3-yl)oxy)piperidin-1-yl)pyridin-3-yl)imidazo[1,2-a]pyridine-3-carbonitrile], the figures for the IC50 (in the test on TT (RET C634W) cells; in test [1]) were 38 nM and 34 nM, respectively.
For `CC(C)(O)COc1cc(-c2ccc(N3CCC(O)(Cc4ccccc4)CC3)nc2)n2c(C#N)cnc2c1` [Example 66, 5-(6-(4-benzyl-4-hydroxypiperidin-1-yl)pyridin-3-yl)-7-(2-hydroxy-2-methylpro-poxy)imidazo[1,2-a]pyridine-3-carbonitrile] the same measures were 117 nM and 55 nM.
For `COc1ccc(OC2CCN(c3ccc(-c4cc(OCC5(O)CC5)cc5ncc(C#N)n45)cn3)CC2)cn1` [Example 68, 7-((1-hydroxycyclopropyl)methoxy)-5-(6-(4-((6-methoxypyridin-3-yl)oxy)piperidin-1-yl)pyridin-3-yl)imidazo[1,2-a]pyridine-3-carbonitrile] the same measures were 5 nM and 10 nM.
The corresponding values for `COc1ccc(OC2CCN(c3ccc(-c4cc(OCC(O)C(F)(F)F)cc5ncc(C#N)n45)cn3)CC2)cn1` (centres unmarked) [Example 69, 5-(6-(4-((6-methoxypyridin-3-yl)oxy)pi-peridin-1-yl)pyridin-3-yl)-7-(3,3,3-trifluoro-2-hydroxypropoxy)imidazo[1,2-a]pyri-dine-3-carbonitrile] are 57 nM and 49 nM.
